Test system: MV-4-11 cells
Assay: Gene expression microarray analysis (Affymetrix PrimeView) and GSEA
Assay type: cell-based, human
Parameters: RFU PODN (11730768_x_at) / Fold change /veh PODN (11730768_x_at) / RFU LINC00158 (11744669_a_at) / Fold change /veh LINC00158 (11744669_a_at) / RFU DUSP10 (11751237_a_at) / Fold change /veh DUSP10 (11751237_a_at) / RFU ID3 (11757404_x_at) / Fold change /veh ID3 (11757404_x_at) / RFU PLEKHG5 (11737974_s_at) / Fold change /veh PLEKHG5 (11737974_s_at) / RFU LRRC4B (11730491_at) / Fold change /veh LRRC4B (11730491_at) / RFU GIMAP4 (11747438_a_at) / Fold change /veh GIMAP4 (11747438_a_at) / RFU KRT8 (11758183_x_at) / Fold change /veh KRT8 (11758183_x_at) / RFU CNN1 (11734310_a_at) / Fold change /veh CNN1 (11734310_a_at) / RFU VPS37D (11726825_at) / Fold change /veh VPS37D (11726825_at) / RFU C10orf10 (11716522_x_at) / Fold change /veh C10orf10 (11716522_x_at) / RFU KIR2DL2 /// KIR2DL4 /// KIR2DL5A /// KIR2DL5B /// KIR2DS1 /// KIR2DS2 /// KIR2DS3 /// KIR2DS4 /// KIR3DL3 /// KIR3DL3 /// KIR3DS1 (11738374_at) / Fold change /veh KIR2DL2 /// KIR2DL4 /// KIR2DL5A /// KIR2DL5B /// KIR2DS1 /// KIR2DS2 /// KIR2DS3 /// KIR2DS4 /// KIR3DL3 /// KIR3DL3 /// KIR3DS1 (11738374_at) / RFU C1QL1 (11718748_at) / Fold change /veh C1QL1 (11718748_at) / RFU TMPRSS4 (11747572_a_at) / Fold change /veh TMPRSS4 (11747572_a_at) / RFU HAMP (11756126_x_at) / Fold change /veh HAMP (11756126_x_at) / RFU RNFT2 (11725882_a_at) / Fold change /veh RNFT2 (11725882_a_at) / RFU NR4A2 (11747474_a_at) / Fold change /veh NR4A2 (11747474_a_at) / RFU ABCC12 (11746883_a_at) / Fold change /veh ABCC12 (11746883_a_at) / RFU TMEM136 (11760407_x_at) / Fold change /veh TMEM136 (11760407_x_at) / RFU CLDN22 /// WWC2 (11732394_at) / Fold change /veh CLDN22 /// WWC2 (11732394_at) / RFU HLA-DPB1 (11760878_x_at) / Fold change /veh HLA-DPB1 (11760878_x_at) / RFU SPINT1 (11716480_a_at) / Fold change /veh SPINT1 (11716480_a_at) / RFU GAP43 (11754022_s_at) / Fold change /veh GAP43 (11754022_s_at) / RFU A4GNT (11735810_at) / Fold change /veh A4GNT (11735810_at) / RFU PRB3 (11715151_x_at) / Fold change /veh PRB3 (11715151_x_at) / RFU TUBB4B (11761932_at) / Fold change /veh TUBB4B (11761932_at) / RFU CAPN14 (11732068_a_at) / Fold change /veh CAPN14 (11732068_a_at) / RFU TMCC2 (11721928_a_at) / Fold change /veh TMCC2 (11721928_a_at) / RFU IRGQ (11745062_a_at) / Fold change /veh IRGQ (11745062_a_at) / RFU FAM174B (11720279_a_at) / Fold change /veh FAM174B (11720279_a_at) / RFU TMPRSS4 (11748680_a_at) / Fold change /veh TMPRSS4 (11748680_a_at) / RFU FAM212B (11763350_a_at) / Fold change /veh FAM212B (11763350_a_at) / RFU PLEKHG5 (11743358_a_at) / Fold change /veh PLEKHG5 (11743358_a_at) / RFU ZSCAN30 (11745921_a_at) / Fold change /veh ZSCAN30 (11745921_a_at) / RFU CMKLR1 (11741424_a_at) / Fold change /veh CMKLR1 (11741424_a_at) / RFU LOC101060620 /// MAPK8IP1 (11723275_at) / Fold change /veh LOC101060620 /// MAPK8IP1 (11723275_at) / RFU SPTSSB (11747773_x_at) / Fold change /veh SPTSSB (11747773_x_at) / RFU PRSS12 (11739890_at) / Fold change /veh PRSS12 (11739890_at) / RFU BIN1 (11741810_x_at) / Fold change /veh BIN1 (11741810_x_at) / RFU WNT11 (11732464_a_at) / Fold change /veh WNT11 (11732464_a_at) / RFU C10orf10 (11716521_a_at) / Fold change /veh C10orf10 (11716521_a_at) / RFU C5orf56 (11738089_at) / Fold change /veh C5orf56 (11738089_at) / RFU CYB561 (11721691_x_at) / Fold change /veh CYB561 (11721691_x_at) / RFU ANKRD19P (11752326_a_at) / Fold change /veh ANKRD19P (11752326_a_at) / RFU OR2T12 /// OR2T33 /// OR2T8 (11738714_s_at) / Fold change /veh OR2T12 /// OR2T33 /// OR2T8 (11738714_s_at) / RFU VCAN (11748164_a_at) / Fold change /veh VCAN (11748164_a_at) / RFU JSRP1 (11732532_at) / Fold change /veh JSRP1 (11732532_at) / RFU KRTAP10-11 (11738290_x_at) / Fold change /veh KRTAP10-11 (11738290_x_at) / RFU MYO3A (11730013_a_at) / Fold change /veh MYO3A (11730013_a_at) / RFU EBF3 (11725865_a_at) / Fold change /veh EBF3 (11725865_a_at) / RFU CAMK2N1 (11719241_x_at) / Fold change /veh CAMK2N1 (11719241_x_at) / RFU C5orf56 (11738088_a_at) / Fold change /veh C5orf56 (11738088_a_at) / RFU OLFML3 (11715873_a_at) / Fold change /veh OLFML3 (11715873_a_at) / RFU LOC100653217 /// NTM (11731650_a_at) / Fold change /veh LOC100653217 /// NTM (11731650_a_at) / RFU MAPK11 (11762145_a_at) / Fold change /veh MAPK11 (11762145_a_at) / RFU FIZ1 (11724087_x_at) / Fold change /veh FIZ1 (11724087_x_at) / RFU OASL (11726364_x_at) / Fold change /veh OASL (11726364_x_at) / RFU SOX15 (11748057_x_at) / Fold change /veh SOX15 (11748057_x_at) / RFU CD79A (11719716_a_at) / Fold change /veh CD79A (11719716_a_at) / RFU HIST1H1D (11736915_at) / Fold change /veh HIST1H1D (11736915_at) / RFU CASKIN2 (11723855_a_at) / Fold change /veh CASKIN2 (11723855_a_at) / RFU LOC730098 (11760151_x_at) / Fold change /veh LOC730098 (11760151_x_at) / RFU OR4N2 (11742367_at) / Fold change /veh OR4N2 (11742367_at) / RFU PRRT2 (11749266_a_at) / Fold change /veh PRRT2 (11749266_a_at) / RFU SNX32 (11753110_a_at) / Fold change /veh SNX32 (11753110_a_at) / RFU CDHR5 (11726645_a_at) / Fold change /veh CDHR5 (11726645_a_at) / RFU RCAN1 (11760418_a_at) / Fold change /veh RCAN1 (11760418_a_at) / RFU FAM167A (11723789_a_at) / Fold change /veh FAM167A (11723789_a_at) / RFU FAM26E (11764081_at) / Fold change /veh FAM26E (11764081_at) / RFU ISYNA1 (11749810_s_at) / Fold change /veh ISYNA1 (11749810_s_at) / RFU ACY1 (11761880_at) / Fold change /veh ACY1 (11761880_at) / RFU 11764098_at / Fold change /veh 11764098_at / RFU SAMD14 (11745864_x_at) / Fold change /veh SAMD14 (11745864_x_at) / RFU NPB (11741838_a_at) / Fold change /veh NPB (11741838_a_at) / RFU TMPRSS6 (11731388_a_at) / Fold change /veh TMPRSS6 (11731388_a_at) / RFU KRTAP10-2 (11738614_at) / Fold change /veh KRTAP10-2 (11738614_at) / RFU ARHGAP8 /// PRR5-ARHGAP8 (11727945_x_at) / Fold change /veh ARHGAP8 /// PRR5-ARHGAP8 (11727945_x_at) / RFU KRTAP5-7 /// NADSYN1 (11734609_at) / Fold change /veh KRTAP5-7 /// NADSYN1 (11734609_at) / RFU RASL12 (11751679_a_at) / Fold change /veh RASL12 (11751679_a_at) / RFU CDKN2B (11736163_a_at) / Fold change /veh CDKN2B (11736163_a_at) / RFU PRF1 (11729649_at) / Fold change /veh PRF1 (11729649_at) / RFU, ZNF638 /// ZNF638-IT1 / Fold change vs veh, ZNF638 /// ZNF638-IT1 / RFU, PANK3 / Fold change vs veh, PANK3 / RFU, SH3YL1 / Fold change vs veh, SH3YL1 / RFU, ZEB2 / Fold change vs veh, ZEB2 / RFU, NRIP1 / Fold change vs veh, NRIP1 / RFU, PTTG1IP / Fold change vs veh, PTTG1IP / RFU, CAPN2 / Fold change vs veh, CAPN2 / RFU, MED14 / Fold change vs veh, MED14 / RFU, SNORA58 / Fold change vs veh, SNORA58 / RFU, C1orf63 / Fold change vs veh, C1orf63 / RFU, LRRFIP1 / Fold change vs veh, LRRFIP1 / RFU, NDUFAF7 / Fold change vs veh, NDUFAF7 / RFU, SLC12A2 / Fold change vs veh, SLC12A2 / RFU, IBTK / Fold change vs veh, IBTK / RFU, ESF1 / Fold change vs veh, ESF1 / Fold change vs veh, TMEM50B / RFU, TAOK1 / Fold change vs veh, TAOK1 / RFU, ACBD3 / Fold change vs veh, ACBD3 / RFU, TMA16 / Fold change vs veh, TMA16 / RFU, RWDD3 / Fold change vs veh, RWDD3 / RFU, BCAT1 / Fold change vs veh, BCAT1 / RFU, EDEM3 / Fold change vs veh, EDEM3 / RFU, TMEM33 / Fold change vs veh, TMEM33 / RFU, WDR75 / Fold change vs veh, WDR75 / RFU, AHCTF1 / Fold change vs veh, AHCTF1 / RFU, TFRC / Fold change vs veh, TFRC / RFU, ZDHHC17 / Fold change vs veh, ZDHHC17 / RFU, NOM1 / Fold change vs veh, NOM1 / RFU, ARL8B / Fold change vs veh, ARL8B / RFU, ZBTB11 / Fold change vs veh, ZBTB11 / RFU, TAMM41 / Fold change vs veh, TAMM41 / RFU, KIAA1704 /// LOC100996395 / Fold change vs veh, KIAA1704 /// LOC100996395 / RFU, ING1 / Fold change vs veh, ING1 / RFU, TRMT61B / Fold change vs veh, TRMT61B / RFU, FUBP3 / Fold change vs veh, FUBP3 / RFU, TP53 / Fold change vs veh, TP53 / RFU, TNKS2 / Fold change vs veh, TNKS2 / RFU, ZFP14 / Fold change vs veh, ZFP14 / RFU, ACTR2 / Fold change vs veh, ACTR2 / RFU, PPP3R1 / Fold change vs veh, PPP3R1 / RFU, PIK3R1 / Fold change vs veh, PIK3R1 / RFU, HNRNPA1 / Fold change vs veh, HNRNPA1 / RFU, RNF170 / Fold change vs veh, RNF170 / RFU, ZNF28 / Fold change vs veh, ZNF28 / RFU, RNGTT / Fold change vs veh, RNGTT / RFU, OGT / Fold change vs veh, OGT / RFU, BRD1 / Fold change vs veh, BRD1 / RFU, MARS / Fold change vs veh, MARS / RFU, ZNF655 / Fold change vs veh, ZNF655 / RFU, FAHD1 / Fold change vs veh, FAHD1 / RFU, BDP1 / Fold change vs veh, BDP1 / RFU, LRRCC1 / Fold change vs veh, LRRCC1 / RFU, ARID1A / Fold change vs veh, ARID1A / RFU, ZNF146 / Fold change vs veh, ZNF146 / RFU, ZNF330 / Fold change vs veh, ZNF330 / RFU, GPN3 / Fold change vs veh, GPN3 / RFU, C9orf123 / Fold change vs veh, C9orf123 / RFU, N4BP2L2 / Fold change vs veh, N4BP2L2 / RFU, ARFIP1 / Fold change vs veh, ARFIP1 / RFU, FAM179B / Fold change vs veh, FAM179B / RFU, BCL10 / Fold change vs veh, BCL10 / RFU, UHRF1BP1L / Fold change vs veh, UHRF1BP1L / RFU, BET1 / Fold change vs veh, BET1 / RFU, CNOT2 / Fold change vs veh, CNOT2 / RFU, ZNF268 / Fold change vs veh, ZNF268 / Fold change vs veh, ZNF507 / RFU, DGCR2 / Fold change vs veh, DGCR2 / RFU, WDSUB1 / Fold change vs veh, WDSUB1 / Fold change vs veh, HSP90B1 /// MIR3652 / RFU, ADSS / Fold change vs veh, ADSS / RFU, GK / Fold change vs veh, GK / RFU, ZNF148 / Fold change vs veh, ZNF148 / RFU, TAF9 / Fold change vs veh, TAF9 / RFU, SLC1A5 / Fold change vs veh, SLC1A5 / RFU, SLMO2 / Fold change vs veh, SLMO2 / RFU, ABCC4 / Fold change vs veh, ABCC4 / RFU, LOC101060439 /// RAP1B / Fold change vs veh, LOC101060439 /// RAP1B / RFU, RFX7 / Fold change vs veh, RFX7 / RFU, GTPBP10 / Fold change vs veh, GTPBP10 / RFU, CNEP1R1 / Fold change vs veh, CNEP1R1 / RFU, BIVM-ERCC5 /// ERCC5 / Fold change vs veh, BIVM-ERCC5 /// ERCC5 / RFU, ILF3 / Fold change vs veh, ILF3 / RFU 11762660_at / Fold change /veh 11762660_at / RFU VCAN (11757783_s_at) / Fold change /veh VCAN (11757783_s_at) / RFU DDX43 (11728927_at) / Fold change /veh DDX43 (11728927_at) / RFU KRT8 (11758188_x_at) / Fold change /veh KRT8 (11758188_x_at) / RFU NKD1 (11759106_at) / Fold change /veh NKD1 (11759106_at) / RFU SRD5A1 (11742802_a_at) / Fold change /veh SRD5A1 (11742802_a_at) / RFU TPSAB1 /// TPSB2 (11721975_s_at) / Fold change /veh TPSAB1 /// TPSB2 (11721975_s_at) / RFU GSTM3 (11746129_a_at) / Fold change /veh GSTM3 (11746129_a_at) / RFU IL23R (11737362_x_at) / Fold change /veh IL23R (11737362_x_at) / RFU TMEM51 (11727254_a_at) / Fold change /veh TMEM51 (11727254_a_at) / RFU PIWIL2 (11732686_x_at) / Fold change /veh PIWIL2 (11732686_x_at) / RFU ORM1 (11744905_x_at) / Fold change /veh ORM1 (11744905_x_at) / RFU CCDC152 (11743942_at) / Fold change /veh CCDC152 (11743942_at) / RFU ECM1 (11717891_a_at) / Fold change /veh ECM1 (11717891_a_at) / RFU IL23R (11748794_a_at) / Fold change /veh IL23R (11748794_a_at) / RFU TNFAIP8L3 (11732012_x_at) / Fold change /veh TNFAIP8L3 (11732012_x_at) / RFU MBOAT4 (11741988_at) / Fold change /veh MBOAT4 (11741988_at) / RFU 11764193_at / Fold change /veh 11764193_at / RFU TMEM53 (11763286_at) / Fold change /veh TMEM53 (11763286_at) / RFU MAGEB2 (11727129_at) / Fold change /veh MAGEB2 (11727129_at) / RFU TMEM200A (11744735_a_at) / Fold change /veh TMEM200A (11744735_a_at) / RFU CCDC152 (11751479_a_at) / Fold change /veh CCDC152 (11751479_a_at) / RFU FAM211A (11726209_a_at) / Fold change /veh FAM211A (11726209_a_at) / RFU RGS16 (11746705_a_at) / Fold change /veh RGS16 (11746705_a_at) / RFU VCAN (11755009_s_at) / Fold change /veh VCAN (11755009_s_at) / RFU RHOB (11743442_s_at) / Fold change /veh RHOB (11743442_s_at) / RFU RGS16 (11720943_a_at) / Fold change /veh RGS16 (11720943_a_at) / RFU RGS16 (11720944_at) / Fold change /veh RGS16 (11720944_at) / RFU, VPS4B / Fold change vs veh, VPS4B / RFU, CREB1 / Fold change vs veh, CREB1 / RFU, DNAJC13 / Fold change vs veh, DNAJC13 / RFU, GNAQ / Fold change vs veh, GNAQ / RFU, CDK5R1 / Fold change vs veh, CDK5R1 / RFU, ZRANB3 / Fold change vs veh, ZRANB3 / RFU, CUL4A / Fold change vs veh, CUL4A / RFU, CCNY / Fold change vs veh, CCNY / RFU, UFL1 / Fold change vs veh, UFL1 / RFU, COG3 / Fold change vs veh, COG3 / RFU, DIAPH2 / Fold change vs veh, DIAPH2 / RFU, SKA2 / Fold change vs veh, SKA2 / RFU, AFF3 / Fold change vs veh, AFF3 / RFU, LMF1 / Fold change vs veh, LMF1 / RFU, IPO11 / Fold change vs veh, IPO11 / RFU, DFFB / Fold change vs veh, DFFB / RFU, FOXP1 / Fold change vs veh, FOXP1 / RFU, CARD8 / Fold change vs veh, CARD8 / RFU, STRN3 / Fold change vs veh, STRN3 / RFU, ADK / Fold change vs veh, ADK / RFU, RASSF2 / Fold change vs veh, RASSF2 / RFU, WIPF1 / Fold change vs veh, WIPF1 / RFU, LARP1B / Fold change vs veh, LARP1B / RFU, RASA1 / Fold change vs veh, RASA1 / RFU, RB1 / Fold change vs veh, RB1 / RFU, PPFIA1 / Fold change vs veh, PPFIA1 / RFU, MAT2A / Fold change vs veh, MAT2A / RFU, CCT5 / Fold change vs veh, CCT5 / RFU, WDR92 / Fold change vs veh, WDR92 / RFU, CUX1 / Fold change vs veh, CUX1 / RFU, TTC7A / Fold change vs veh, TTC7A / RFU, TMEM135 / Fold change vs veh, TMEM135 / RFU, DEPTOR / Fold change vs veh, DEPTOR / RFU, CPM / Fold change vs veh, CPM / RFU, DNAJB6 / Fold change vs veh, DNAJB6 / RFU, CACNA2D3 / Fold change vs veh, CACNA2D3 / RFU, DTX4 / Fold change vs veh, DTX4 / RFU, TFCP2 / Fold change vs veh, TFCP2 / RFU, GMCL1 /// GMCL1P1 / Fold change vs veh, GMCL1 /// GMCL1P1 / RFU, AEBP2 / Fold change vs veh, AEBP2 / RFU, SNHG1 /// SNORD22 /// SNORD25 /// SNORD26 /// SNORD27 /// SNORD28 /// SNORD29 /// SNORD31 / Fold change vs veh, SNHG1 /// SNORD22 /// SNORD25 /// SNORD26 /// SNORD27 /// SNORD28 /// SNORD29 /// SNORD31 / Fold change (Aza/veh), C12orf56 (ProbeSet 11735607_a_at) / Fold change (ACY-1035/veh), C12orf56 (ProbeSet 11735607_a_at) / Fold change (Aza/veh), FGFR1OP (ProbeSet 11751329_s_at) / Fold change (ACY-1035/veh), FGFR1OP (ProbeSet 11751329_s_at) / Fold change (Aza/veh), VPS36 (ProbeSet 11739960_a_at) / Fold change (ACY-1035/veh), VPS36 (ProbeSet 11739960_a_at) / RFU SYPL1 (11715823_x_at) / Fold change /veh SYPL1 (11715823_x_at) / RFU IGFBP7 (11715501_s_at) / Fold change /veh IGFBP7 (11715501_s_at) / RFU REEP3 (11722064_at) / Fold change /veh REEP3 (11722064_at) / RFU IGLL1 (11728026_x_at) / Fold change /veh IGLL1 (11728026_x_at): dose or concentration left out as unconfirmed
Conditions: ProbeSet 11743929_at; LIST B

Nc1ncn([C@@H]2O[C@H](CO)[C@@H](O)[C@H]2O)c(=O)n1 [azacitidine]
Fold change vs veh, UHRF1BP1L: 0.95

— article PMC5218480 (PLoS ONE, 2017)
